# Entries after “also recorded” stand apart in the source; their conditions may differ. Where no end group is shown, it is not given here. (C16)2 = not defined here
# Key:
# Assay type in all cases: cell-based, human
# HUVECs [1] = assay: HUVEC spreading on substrates (cell area)
# Procedure: (§1) Cell spreading and fibronectin production experiments: Surface transferring, cell seeding, and incubation were done in the same manner as in the adhesion experiment, with a cell density of 497 cells/mm^2, and incubation times of 1, 12, 24, 48, and 72 hour. At the end of each incubation, the surfaces were removed, washed with […] of PBS, and fixed in 1 ml of 4% paraformaldehyde (Sigma) in PBS for 15 minutes at 37° C., 5% CO2. After washing with PBS, surfaces were first labeled for secreted fibronectin: surfaces were subjected to a blocking solution (0.1% BSA in PBS) for 30 minutes, incubated for 1 hour with a primary antibody specific for secreted fibronectin (mouse anti-human fibronectin (P1H11) monoclonal antibody (Chemicon Int.) at a 1:500 dilution in blocking solution, and then for 45 minutes with a secondary antibody (IgG fluorescein (FITC) conjugated antibody; Chemicon Int.) at a 1:200 dilution in PBS. As a final step, cell membranes and nuclei were stained using the Image-iT™ LIVE Plasma Membrane and Nuclear Labeling Kit following the manufacturer's protocol for labeling fixed cells (Molecular Probes). After final washing, surfaces were mounted onto glass slides and stored at 4° C. protected from light. An inverted fluorescent microscope (Nikon Eclipse TE200 with Pixcell II LCM) was used for imaging. Fibronectin production was assessed visually, by comparing 10-20 fluorescence images from two samples for each substrate (two independent experiments performed at different days). Cell spreading was quantified from two samples per substrate (two independent experiments performed at different days) by measuring cell area with the NIH imaging software.
# HUVECs [2] = assay: Extracellular fibronectin production by HUVECs (Example 1)
# Procedure: as §1
# HUVECs [3] = assay: HUVEC adhesion timed experiments on LB membranes (Example 2)
# Procedure: Surface preparation: Each peptide-amphiphile was used to form homogenous LB membranes as in previous work (Kokkoli Langmuir 2004; 20:2397-2404), except that both the water and 15 mm mica disks used had been autoclaved for sterility. All depositions were done at a surface pressure between 41 and 47 mN/m, well below the collapse pressure and in the liquid-condensed or solid phase. Approximately 90 minutes before cells were seeded on the LB films to begin cell adhesion experiments, mica surfaces were transferred into 1× phosphate buffered saline (PBS), with particular care taken to ensure films were not exposed to air. After 5-10 minutes of equilibration, surfaces were transferred into 24-well plates containing a supplemented MCDB-131 basal media (Sigma), as described in Example 1. Following surface transfer, 24-well plates were moved to a 37° C., 5% CO2 incubator for 45-60 minutes. As a control, 22 mm diameter human fibronectin-coated coverslips (BD Biosciences), referred to as FN, were put into 12-well plates, covered with 2 ml of the supplemented media, and also incubated for 45-60 minutes.
# Cell culture: Human umbilical vein endothelial cells, HUVECs (Cambrex Corporation), were cultured as described previously (see Example 1). Only cells from passage 3 were used in all studies.
# Cell adhesion experiments: Flasks of HUVECs with at least 90% confluency were washed with 1×PBS, trypsinized with 0.25% Trypsin-EDTA (Fisher Scientific), and neutralized with 2% fetal bovine serum in MCDB-131 basal media. The suspended cells from all flasks were placed in one 50 ml centrifuge tube and centrifuged at 1000 rpm for 5 minutes. The media was removed and the cell pellet was resuspended in the supplemented media described above. A hemocytometer was used to count the cells and then 497 cells/mm^2 were seeded onto both LB and FN surfaces. Surfaces were incubated with cells at 37° C., 5% CO2 for 1, 4, or 12 hours. Cell adhesion following these times was determined using the CyQuant cell proliferation assay kit (Molecular Probes), which measures the fluorescence of a cellular nucleic acid-binding dye using the SpectraMAX GeminiXS plate reader (Molecular Devices). Standard calibration curves were created within each experiment for both 12- and 24-well plates.
# HUVECs [4] = assay: HUVEC adhesion on LB membranes of peptide-amphiphiles (Example 1); settings: no serum; for HUVEC adhesion compared to FN: seeded 497 cells/mm^2
# Source text: Surface preparation: Peptide-amphiphiles, listed in Table 1, were synthesized as described in the literature (Berndt et al., J. Am. Chem. Soc., 1995; 117:9515-9522). Langmuir-Blodgett (LB) membranes constructed from peptide-amphiphiles were deposited onto 15 mm mica disks as described elsewhere (Kokkoli et al., Langmuir, 2004; 20:2397-2404). Shortly before cell assays, the LB films were transferred into 24-well plates containing 1× phosphate buffered saline (PBS) solution (Mediatech), without exposing surfaces to air, as they rearrange to form multilayers (Hansma et al., Method. Cell Biol., 2002; 69:163-193). After equilibrating for 5-10 minutes, PBS was exchanged with 1 ml of MCDB-131 basal media (Sigma) supplemented with 0.1% bovine serum albumin (BSA) (Sigma) and antibiotics (Sigma) (2.5 μg/ml gentamicin, 2.5 μg/ml amphotericin B, 50 U/ml penicillin, and 50 μg/ml streptomycin), referred to as 0.1% BSA media. Surfaces were equilibrated at 37° C., 5% CO2 for 30-60 minutes before adding the cells. Human fibronectin-coated round coverslips (FN) 22 mm in diameter (BD Biosciences) were put into 12-well plates and 2 ml of 0.1% BSA media was added to each well. Surfaces were equilibrated for 30-60 minutes at 37° C., 5% CO2.
# Cell culture: Human umbilical vein endothelial cells, HUVECs, (Cambrex Corporation) were cultured in MCDB-131 containing 20% fetal bovine serum (FBS) (Atlas Biologicals) at 37° C., 5% CO2. Other nutrients and antibiotics supplementing the media were added based on an optimal HUVEC proliferation study (Terramani et al., In Vitro Cell Dev. Biol.—Animal, 2000; 36:125-132). Media was changed in the culture flasks every other day. Cells used for adhesion and imaging studies were in passages 3-4.
# Cell adhesion experiments: After cells became 90% confluent they were washed with PBS, trypsinized with 0.25% Trypsin-EDTA (Cambrex Corporation), neutralized with MCDB-131 with 2% FBS, and spun at 1000 rpm for 10 minutes. The supernatant was removed and the cell pellet was resuspended in 0.1% BSA media. Cells were counted with a hemocytometer and seeded onto LB and FN surfaces at a density of 497 cells/mm^2. Surfaces were incubated with cells in 0.1% BSA media at 37° C., 5% CO2, for 1, 4, 12, 24, 48, and 72 hours. Cell adhesion was quantified using the CyQuant Cell Proliferation Assay Kit, with a dye that binds to cellular nucleic acids, following the manufacturer's protocol (Molecular Probes). A calibration standard curve was created for each experiment. The plates were read on a SpectraMAX GeminiXS (Molecular Devices).
substance,measurement,setting,value
(C16)2-Glu-C2-KSSPHSRNSGSGSGSGSGRGDSP ({(C16)2-Glu-C2}-KSSPHSRNSGSGSGSGSGRGDSP; not fully specified; reading uncertain) [PR_b],HUVEC spreading (cell area),HUVECs [1]; 1-24 hours,mostly spread
same,"HUVEC spreading, rank among surfaces","HUVECs [1]; all times examined, 1-72 hours",spread the most
same,Fibronectin secretion by adhered HUVECs,HUVECs [2]; after 48 hours,fully covered with secreted fibronectin
same,"Amount of fibronectin secretion, PR_b versus FN",HUVECs [2]; all times examined,comparable for both substrates
same,"HUVEC adhesion compared with FN, overall","HUVECs [3]; 1, 4 and 12 hours",outperform the positive control fibronectin at all times; also recorded: better than FN at all times; also recorded: statistically better than both Pr_f and the control FN
same,HUVEC adhesion compared with Pr_c,"HUVECs [3]; 1, 4 and 12 hours",significantly better than Pr_c at all times except 1 hour
same,HUVEC adhesion compared with Pr_d,"HUVECs [3]; 1, 4 and 12 hours",better than Pr_d at all times except 4 hours
same,HUVEC adhesion compared with Pr_f,"HUVECs [3]; 1, 4 and 12 hours",statistically better than both Pr_f and the control FN; also recorded: much better
same,HUVEC adhesion level (description),"HUVECs [3]; 1, 4 and 12 hours",excellent adhesion at all times; also recorded: highest level of adhesion
same,HUVEC adhesion compared with Pr_e,HUVECs [3]; 1 and 4 hours,no statistical difference
same,HUVEC adhesion compared with Pr_e,HUVECs [3]; 12 hours,outperforms Pr_e; also recorded: better than Pr_e
same,Maintenance / decay of HUVEC adhesion over time,HUVECs [3]; up to 12 hours,most consistent adhesion over 12 hours; also recorded: smallest amount of decay over 12 hours; also recorded: least drop-off between 4 and 12 hours; also recorded: least amount of decay
same,HUVEC adhesion compared to FN,HUVECs [4]; 1-24 hours,higher adhesion than FN
same,Ability of substrate to sustain HUVEC adhesion over time,HUVECs [4]; 1-72 hours,effectively adhered
same,HUVEC adhesion compared to the other peptide surfaces,HUVECs [4]; 1-72 hours,most promising sequence; also recorded: outperformed all other peptide substrates; also recorded: outperforms all other peptide surfaces
same,HUVEC adhesion compared to FN,HUVECs [4]; 48-72 hours,similar; also recorded: equivalent

# Source: patent publication US8343539B2, “Compounds that bind α5β1 integrin and methods of use” (Regents of the University of Minnesota, priority 2006, dated 2013)
